ChEMBL document CHEMBL1136775, “Indole naphthyridinones as inhibitors of bacterial enoyl-ACP reductases FabI and FabK” (J Med Chem, 2003)
In brackets after ≈: the same amount, converted by molar mass.

Legend:
[1] = Inhibitory activity against Enoyl-ACP reductase FabI in Haemophilus influenzae
[2] = tested on: Haemophilus influenzae; assay: Antibacterial activity against Haemophilus influenzae Q1; assay type: functional
[3] = molecular target: T1, Enoyl-[acyl-carrier-protein] reductase [NADPH] FabI (Staphylococcus aureus, UniProt Q6GI75); assay: Inhibitory activity against Enoyl-ACP reductase FabI in Staphylococcus aureus
T1 sequence (Q6GI75 whole entry): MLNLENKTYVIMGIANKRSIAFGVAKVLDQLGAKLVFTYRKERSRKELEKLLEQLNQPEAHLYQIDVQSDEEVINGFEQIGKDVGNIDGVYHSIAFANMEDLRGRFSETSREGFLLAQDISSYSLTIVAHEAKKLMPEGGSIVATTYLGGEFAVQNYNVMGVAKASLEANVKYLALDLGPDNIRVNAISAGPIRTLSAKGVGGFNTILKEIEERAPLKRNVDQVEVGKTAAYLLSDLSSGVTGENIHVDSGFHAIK

[4] = tested on: Staphylococcus aureus; assay: Antibacterial activity against Staphylococcus aureus WCUH29; assay type: functional
[5] = tested on: Liposome; assay: Inhibitory activity in liposome lysis assay; assay type: functional, subcellular, Homo sapiens
[6] = tested on: A549; assay: Cytotoxicity against human A549 lung cells; assay type: functional, cell-based
[7] = Inhibitory activity against human FASI enzyme; assay type: functional
[8] = tested on: Moraxella catarrhalis; assay: Antibacterial activity against Moraxella catarrhalis; assay type: functional
[9] = tested on: Escherichia coli; assay: Antibacterial activity against Escherichia coli 120AcrAB-; assay type: functional
[10] = Inhibitory activity against Enoyl-ACP reductase FabI in Escherichia coli; assay type: functional
[11] = Inhibitory activity against Enoyl-ACP reductase FabK in Streptococcus pneumoniae; assay type: functional
[12] = tested on: Enterococcus faecalis; assay: Antibacterial activity against Enterococcus faecalis I; assay type: functional
[13] = tested on: Streptococcus pneumoniae; assay: Antibacterial activity against Streptococcus pneumoniae 1629; assay type: functional
[14] = tested on: Staphylococcus aureus; assay: Inhibitory activity against Staphylococcus aureus; assay type: functional
[15] = tested on: Staphylococcus aureus; assay: Antibacterial activity against in Staphylococcus aureus WCUH29; assay type: functional

| SMILES | IC50 [1] [nM] | MIC50 [2] [µg/mL] | IC50 [3] [nM] | MIC50 [4] [µg/mL] | IC50 [5] [nM] | IC50 [7] [nM] | MIC50 [8] [µg/mL] | MIC50 [9] [µg/mL] | IC50 [10] [nM] | IC50 [11] [nM] | MIC50 [12] [µg/mL] | MIC50 [13] [µg/mL] | MIC50 [15] [µg/mL] | IC50 [6] [µg/mL] | Ki [14] [nM] |
| --- | --- | --- | --- | --- | --- | --- | --- | --- | --- | --- | --- | --- | --- | --- | --- |
| CN(Cc1cc2ccccc2n1C)C(=O)/C=C/c1ccc(N)nc1 | 4200 | > 64 |  | 0.5 (≈ 1.56 µM) | 630000 | > 100000 |  |  |  |  |  |  |  | 512 (≈ 1600 µM) |  |
| CN(Cc1cc2ccccc2n1C)C(=O)/C=C/c1cnc2c(c1)CCCN2 | 2700 | > 64 | 2300 | 0.5 (≈ 1.39 µM) |  |  |  |  |  |  |  |  |  |  |  |
| Cc1cc(/C=C/C(=O)N(C)Cc2cc3ccccc3n2C)cnc1N | 6100 | > 64 | 910 | 0.25 (≈ 0.748 µM) |  |  |  |  |  |  |  |  |  |  |  |
| CC(=O)Nc1ncc(/C=C/C(=O)N(C)Cc2cc3ccccc3n2C)cc1C | 7600 | > 64 | 940 |  |  |  |  |  |  |  |  |  | 2 (≈ 5.31 µM) |  |  |
| Oc1cc(Cl)ccc1Oc1ccc(Cl)cc1Cl [TRICLOSAN] |  | 0.5 (≈ 1.73 µM) |  | 0.03 (≈ 0.104 µM) |  |  | < 0.06 | 0.5 (≈ 1.73 µM) |  | > 30000 | 16 (≈ 55.3 µM) | 16 (≈ 55.3 µM) |  |  |  |

Continued, in another order:

| IC50 [1] [nM] | MIC50 [2] [µg/mL] | IC50 [3] [nM] | MIC50 [4] [µg/mL] | IC50 [5] [nM] | IC50 [7] [nM] | MIC50 [8] [µg/mL] | MIC50 [9] [µg/mL] | IC50 [10] [nM] | IC50 [11] [nM] | MIC50 [12] [µg/mL] | MIC50 [13] [µg/mL] | MIC50 [15] [µg/mL] | SMILES | IC50 [6] [µg/mL] | Ki [14] [nM] |
| --- | --- | --- | --- | --- | --- | --- | --- | --- | --- | --- | --- | --- | --- | --- | --- |
| 1300 | 32 (≈ 88.3 µM) | 300 | 0.12 (≈ 0.331 µM) |  |  |  |  |  |  |  |  |  | CC(=O)Nc1ccc(/C=C/C(=O)N(C)Cc2cc3ccccc3n2C)cn1 |  |  |
| 25 | > 64 | 60 | < 0.001 |  |  | < 0.06 | 32 (≈ 82.4 µM) | 30 | > 30000 | > 64 | > 64 |  | Cc1c(CN(C)C(=O)/C=C/c2cnc3c(c2)CCC(=O)N3)c2ccccc2n1C |  |  |
| 390 | 16 (≈ 42.7 µM) | 130 | 0.06 (≈ 0.16 µM) |  |  | < 0.06 | 8 (≈ 21.4 µM) | 70 | 5000 | 16 (≈ 42.7 µM) | 16 (≈ 42.7 µM) |  | CN(Cc1cn(C)c2ccccc12)C(=O)/C=C/c1cnc2c(c1)CCC(=O)N2 |  |  |
| 130 | 1 (≈ 2.67 µM) | 50 | 0.016 (≈ 0.0427 µM) |  |  | < 0.06 | 0.5 (≈ 1.34 µM) | < 60 | 3000 | 16 (≈ 42.7 µM) | 16 (≈ 42.7 µM) |  | Cc1[nH]c2ccccc2c1CN(C)C(=O)/C=C/c1cnc2c(c1)CCC(=O)N2 |  |  |
| 560 | 32 (≈ 85.5 µM) | 50 | 0.03 (≈ 0.0801 µM) |  |  |  |  |  |  |  |  |  | CN(Cc1cc2ccccc2n1C)C(=O)/C=C/c1cnc2c(c1)CCC(=O)N2 |  | 4.3 |
| 70 | > 64 | 20 | < 0.001 |  |  | 2 (≈ 4.97 µM) | > 64 | < 70 | > 30000 | > 64 | > 64 |  | Cc1cccc2c(CN(C)C(=O)/C=C/c3cnc4c(c3)CCC(=O)N4)c(C)n(C)c12 |  |  |
